Data as given in US4395405A, “Alkyl-ketohexopyranoside derivatives and method of use” (Hisamitsu Pharmaceutical Co., Inc., priority 1979, dated 1983).

Columns and labels:
[1] = system: IgG and IgM; assay: Amount of antibodies formed in rats, PHA (phytohemaglutinin) reaction; assay type: in vivo, rats of wistar strain
Description: (§1) Effects on the formation of homocytotropic antibodies in rats
(§2) An experiment was carried out in accordance with the Tada and Okumura's method (J. Immunol., Vol. 106, p 1002, 1971).
(§3) Groups each consisting of 8-9 rats of wistar strain were used in this experiment.
(§4) As shown in Tables 2-5, to the four legs of the rats were injected 1 mg of dinitrophenylated extract of ascaris suum (DNP-As) as protein and 10^10 cells of vaccinum pertussis (B. Pertussis) for sensitization, after which the compounds of this invention were administered to the injected rats for 5 days. Eight to nine days after the sensitization, bloodletting was effected on these rats to collect their serum for estimating the amount of antibodies formed using passive cutaneous anaphylaxis (PCA) reactions and phytohemaglutinin (PHA) reactions.
(2) Estimation of the amount of antibodies by PHA reaction:
The collected serum was diluted in various concentrations and incubated with sheep red blood cells coupled with DNP-As using bis-diazoated benzydine to determine the dilution of the serum which induced the minimum hemaglutination. […]

[2] = system: IgE antibodies; assay: Formation of homocytotropic antibodies in rats, PCA (passive cutaneous anaphylaxis) reaction; assay type: in vivo, rats of wistar strain
Description: as §1, §2, §3, §4
(1) Estimation of the amount of antibodies by PCA reaction:
The collected serum was diluted in various concentrations and intradermally injected to other rats. Forty-eight (48) hours after the injection, 2 mg of DNP-As as protein and 0.5 ml of a 1% Evans Blue were intravenously injected into these rats to determine the dilution of the serum which induced the minimum extravasted dye. It should be noted that the symbols "*" and "**" in the following Tables indicate significant differences at risks of 5% and 1%, respectively. […]

[3] = system: IgE antibodies; assay: Formation of homocytotropic antibodies in mice, PCA reaction; assay type: in vivo, mice (BALB/c strain), female; details: 100 mg/Kg/day for 5 days
Description: The collected serum was diluted in various concentrations and intradermally injected to other rats. Forty-eight (48) hours after the injection, 2 mg of DNP-As as protein and 0.5 ml of a 1% Evans Blue were intravenously injected into these rats to determine the dilution of the serum which induced the minimum extravasted dye. It should be noted that the symbols "*" and "**" in the following Tables indicate significant differences at risks of 5% and 1%, respectively.
(§5) Effects on the formation of homocytotropic antibodies in mice
(§6) Groups each consisting of 5 female mice (BALB/c strain) were used in this experiment. The mice were sensitized with 10 μg of DNP-As as protein and 3 mg of Al(OH)3, after which the test compound was administered to the sensitized mice for 5 days (at a dose of 100 mg/Kg/day). After the sensitization, a sample of serum was collected from the mice and treated in the same manner as in Experiment 1 to determine the amount of antibodies formed. […]

[4] = system: IgG and IgM; assay: Amount of antibodies formed in mice, PHA reaction; assay type: in vivo, mice (BALB/c strain), female; details: 100 mg/Kg/day for 5 days
Description: The collected serum was diluted in various concentrations and incubated with sheep red blood cells coupled with DNP-As using bis-diazoated benzydine to determine the dilution of the serum which induced the minimum hemaglutination.
as §5, §6

[5] = Acute poisoning test on rats; details: rat, in vivo, three weeks
Description: (§7) Each of the test compounds was suspended in a physiological solution of sodium chloride containing 0.5% of tragacanth gum to obtain a test suspension. The test suspensions so obtained were administered to rats and mice in various ways. LD50 was calculated from test animals which died in three weeks after the start of the test.

[6] = Acute poisoning test on mice; details: mouse, in vivo, three weeks
Description: as §7

[7] = Table 4, oral administration, serum 8 days after the sensitization, control 320 (270-370)
[8] = Table 2, abdominal and oral administration, 5 days, serum 8 days after sensitization, control 237 (169-337)
[9] = Table 2, abdominal and oral administration, 5 days, serum 9 days after sensitization, control 169 (119-223)
[10] = Table 6, oral, serum 10 days after sensitization, control 256 ± 128
[11] = Table 6, oral, serum 21 days after sensitization, control 1024 ± 0
[12] = Table 6, oral, serum 30 days after sensitization, control 299 ± 43
[13] = Table 9, hypodermic, serum 37 days after, control 3467.37 (2013.72-3767.04)
[14] = Table 11, hypodermic, serum 9 days after, control 380.2 (269.2-537.0), 100 mg/kg/day
[15] = Table 5 left half, hypodermic administration, serum 8 days after sensitization, control 1318.3 (933.3-1862.1)
[16] = Table 3 left half, hypodermic administration, serum 8 days after sensitization, control 144.5 (117.5-177.8)
[17] = Table 7, oral, serum 10 days after sensitization, control 537.0 (436.5-660.7)
[18] = Table 8, hypodermic, serum 9 days after, control 708.0 (575.4-871.0)
[19] = Table 8, hypodermic, serum 10 days after, control 537.0 (380.2-758.6)
[20] = Table 8, hypodermic, serum 37 days after, control 2818.4 (1862.1-4265.8)
[21] = Table 11, hypodermic, serum 9 days after, control 380.2 (269.2-537.0)
[22] = Table 11, hypodermic, serum 10 days after, control 109.7 (95.5-125.9)
[23] = Table 11, hypodermic, serum 37 days after, control 1071.5 (871.0-1318.3)
[24] = Table 10, oral, serum 10 days after, control 125.9 (95.5-166.0)
[25] = Table 5 right half, hypodermic administration, serum 8 days after sensitization, control 3235.9 (2454.7-4265.8)
[26] = Table 3 right half, hypodermic administration, serum 8 days after sensitization, control 269.2 (218.8-331.1)

Row | SMILES | PHA of rat: dilution of the serum which induced the minimum hemaglutination [1, 7] | PCA of rat: dilution of the serum which induced the minimum extravasted dye [2, 8] | PCA of rat: dilution of the serum which induced the minimum extravasted dye [2, 9] | PCA of mice (serum dilution) [3, 10] | PCA of mice (serum dilution) [3, 11] | PCA of mice (serum dilution) [3, 12] | PCA of mice (serum dilution) [3, 17] | PHA of mice (serum dilution) [4, 21] | PHA of mice (serum dilution) [4, 22] | PHA of mice (serum dilution) [4, 23] | PHA of mice (serum dilution) [4, 24] | further results
1 | CCCCOC1(CO)OCC(O)C(O)C1O [Compound No. 2, n-butyl-β-D-fructopyranoside] | 600 | 147 | 84.4 | – | – | – | – | – | – | – | – | –
2 | CC(C)COC1(CO)OCC(O)C(O)C1O [Compound No. 3, isobutyl-β-D-fructopyranoside] | 630 | 73.5 | 97.0 | 118 ± 37 | 563 ± 125 | 256 ± 129 | – | – | – | – | – | –
3 | CCCCCOC1(CO)OCC(O)C(O)C1O [Compound No. 4, n-pentyl-β-D-fructopyranoside] | 3250 | 52.0 | 51.9 | 88 ± 24 | 328 ± 108 | 272 ± 80 | – | – | – | – | – | PCA of mice (serum dilution) [3, 13]: 177.83; PHA of mice (serum dilution) [4, 14]: 309.0 (251.2-380.2); LD50 at 504 h ([5]; ip, abdominally, female): > 2780 mg/kg; LD50 at 504 h ([5]; ip, abdominally, male): > 2780 mg/kg; LD50 at 504 h ([5]; iv, intravenously, female): 660 mg/kg; LD50 at 504 h ([5]; iv, intravenously, male): 670 mg/kg; LD50 at 504 h ([5]; po, orally, female): > 4000 mg/kg; LD50 at 504 h ([5]; po, orally, male): > 4000 mg/kg; LD50 at 504 h ([5]; sc, hypodermically, female): 1300 mg/kg; LD50 at 504 h ([5]; sc, hypodermically, male): 1500 mg/kg; LD50 at 504 h ([6]; ip, abdominally, female): 2360 mg/kg; LD50 at 504 h ([6]; ip, abdominally, male): 2590 mg/kg; LD50 at 504 h ([6]; iv, intravenously, female): 930 mg/kg; LD50 at 504 h ([6]; iv, intravenously, male): 760 mg/kg; LD50 at 504 h ([6]; po, orally, female): 3790 mg/kg; LD50 at 504 h ([6]; po, orally, male): 3800 mg/kg; LD50 at 504 h ([6]; sc, hypodermically, female): 1080 mg/kg; LD50 at 504 h ([6]; sc, hypodermically, male): 1020 mg/kg; PHA of rat: dilution of the serum which induced the minimum hemaglutination [1, 15]: 2454.7; PCA of rat: dilution of the serum which induced the minimum extravasted dye [2, 16]: 102.4
4 | CC(C)CCOC1(CO)OCC(O)C(O)C1O [Compound No. 5, isopentyl-β-D-fructopyranoside] | – | – | 90.5 | 316 ± 86 | 480 ± 142 | 448 ± 64 | – | – | – | – | – | –
5 | CCCCCCOC1(CO)OCC(O)C(O)C1O [Compound No. 6, n-hexyl-β-D-fructopyranoside] | 810 | 97.0 | 147 | 320 | 288 | 240 | – | – | – | – | – | –
6 | CCCOC1(CO)OCC(O)C(O)C1O [Compound No. 7, n-propyl-α-L-sorbopyranoside] | – | – | – | – | – | – | 218.8 | 309.0 (251.2-380.2) | 166.0 (134.9-204.2) | 1000 (758.6-1318.3) | – | PCA of mice (serum dilution) [3, 18]: 660.7; PCA of mice (serum dilution) [3, 19]: 407.4; PCA of mice (serum dilution) [3, 20]: 1995.3; LD50 at 504 h ([5]; ip, abdominally, male): > 5000 mg/kg; LD50 at 504 h ([5]; iv, intravenously, male): > 2000 mg/kg; LD50 at 504 h ([5]; po, orally, male): > 5000 mg/kg; LD50 at 504 h ([5]; sc, hypodermically, male): > 5000 mg/kg; LD50 at 504 h ([6]; ip, abdominally, male): > 1000 mg/kg; LD50 at 504 h ([6]; iv, intravenously, male): > 2000 mg/kg; LD50 at 504 h ([6]; po, orally, male): > 5000 mg/kg; LD50 at 504 h ([6]; sc, hypodermically, male): > 5000 mg/kg; PHA of rat: dilution of the serum which induced the minimum hemaglutination [1, 15]: 5248.1; PCA of rat: dilution of the serum which induced the minimum extravasted dye [2, 16]: 67.6
7 | CCCCOC1(CO)OCC(O)C(O)C1O [Compound No. 9, n-butyl-α-L-sorbopyranoside] | – | – | – | – | – | – | 380.2 | 288.4 (245.5-354.8) | 102.3 (89.1-117.5) | 871.0 (660.7-1148.2) | 177.8 | PCA of mice (serum dilution) [3, 18]: 708.0; PCA of mice (serum dilution) [3, 19]: 218.8; PCA of mice (serum dilution) [3, 20]: 1513.6; PCA of mice (serum dilution) [3, 13]: 251.19; PHA of rat: dilution of the serum which induced the minimum hemaglutination [1, 15]: 5248.1; PCA of rat: dilution of the serum which induced the minimum extravasted dye [2, 16]: 47.9
8 | CCCCCOC1(CO)OCC(O)C(O)C1O [Compound No. 11, n-pentyl-α-L-sorbopyranoside] | – | – | – | – | – | – | 501.2 | – | 109.7 (83.2-144.5) | 1621.8 (1318.3-1995.3) | 177.8 | PCA of mice (serum dilution) [3, 13]: 177.83; PHA of mice (serum dilution) [4, 14]: 354.8 (288.4-457.1); PHA of rat: dilution of the serum which induced the minimum hemaglutination [1, 25]: 3467.4 (2630.3-4570.8); PCA of rat: dilution of the serum which induced the minimum extravasted dye [2, 26]: 154.9 (134.9-177.8)
9 | CC(C)CCOC1(CO)OCC(O)C(O)C1O [Compound No. 12, isopentyl-2-L-sorbopyranoside] | – | – | – | – | – | – | 269.2 | 218.8 (109.7-436.5) | 144.5 (125.9-166.0) | 1230.3 (871.0-1737.8) | 109.7 | PHA of rat: dilution of the serum which induced the minimum hemaglutination [1, 25]: 6025.6 (4897.8-7413.1); PCA of rat: dilution of the serum which induced the minimum extravasted dye [2, 26]: 234.4 (204.2-269.2)
10 | CCCCCCOC1(CO)OCC(O)C(O)C1O [Compound No. 13, n-hexyl-α-L-sorbopyranoside] | – | – | – | – | – | – | – | 125.9 (83.2-190.6) | 102.3 (89.1-117.5) | 1148.2 (758.6-1737.8) | 109.7 | PCA of mice (serum dilution) [3, 18]: 380.2; PCA of mice (serum dilution) [3, 19]: 708.0; PCA of mice (serum dilution) [3, 20]: 3235.9; PHA of rat: dilution of the serum which induced the minimum hemaglutination [1, 25]: 4265.8 (2630.3-6918.3)
11 | O=P1(N(CCCl)CCCl)NCCCO1 (stereo not shown) [Cyclophosphamide, reference compound] | – | – | 16.0 | 214 ± 103 | 561 ± 71 | 368 ± 146 | – | – | – | – | – | –
